Consider twelve molecules from ChEMBL document CHEMBL1201862, “PubChem BioAssay data set” (2004).

Test systems include 786-0; A549; ACHN; CCRF-CEM; COLO 205; DU-145; HL-60; MDA-MB-231; Malme-3M; NCI-H23; NCI-H460; NCI-H522; OVCAR-4; RPMI-8226; SK-MEL-5; T47D; UACC-257; SNB-75.
Common to all, as to test: NCI tumour cell line growth inhibition, 48 h

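96-well plates; 48 h exposure; 5 concentrations. Endpoints by linear interpolation between flanking doses. Not reached: highest tested concentration assigned. GI50 marks 50% less growth.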 The source made the active and inactive calls. No stated cut-off is given here; in the data, active = GI50 up to about 1.1 µM and inactive = higher.

On to `CC1(CO)OC(n2cnc3cncnc32)CC1O` (configuration not stated), for which the GI50 in the experiment with 786-0, in the experiment on A549, with ACHN, in the experiment with CCRF-CEM, in the experiment on COLO 205 and with DU-145 was > 100 µM (inactive) in each case. The GI50 with HL-60, in the experiment with MDA-MB-231, in the experiment on Malme-3M, in the experiment with NCI-H23, with NCI-H460 and with NCI-H522 was > 100 µM (inactive) in each case. In addition, the GI50 in the experiment with OVCAR-4, in the experiment on RPMI-8226, in the experiment on SK-MEL-5, with T47D and in the experiment on UACC-257 was > 100 µM (inactive) in each case.

In the case of `Cc1cc2c(cc1C)[n+]([O-])c(C(=O)N1CCN(c3ccc([N+](=O)[O-])cc3)CC1)c(C)[n+]2[O-]`, the GI50 in the experiment on 786-0 is 14.3 µM (inactive); with A549, 82.2 µM (inactive); with ACHN, 2.84 µM (inactive); in the experiment on CCRF-CEM, > 100 µM (inactive); in the experiment with COLO 205 it was > 100 µM (inactive); with DU-145, 29.5 µM (inactive). The GI50 is > 100 µM (inactive) in the experiment with HL-60; 21.8 µM (inactive) with MDA-MB-231; > 100 µM (inactive) with Malme-3M; 26.5 µM (inactive) in the experiment on NCI-H23; 22.9 µM (inactive) in the experiment with NCI-H460; 75.3 µM (inactive) in the experiment on NCI-H522. Also, the GI50 was > 100 µM (inactive) with OVCAR-4; > 100 µM (inactive) with RPMI-8226; 74.6 µM (inactive) in the experiment with SK-MEL-5; 63.2 µM (inactive) in the experiment on T47D; > 100 µM (inactive) in the experiment on UACC-257.

Take `O=C1/C(=C/c2ccc(Cl)cc2)Sc2scc(-c3cccc([N+](=O)[O-])c3)[n+]21`: the GI50 in the experiment on 786-0 is 2.16 µM (inactive); with A549, 13.6 µM (inactive); in the experiment with ACHN it was 2.49 µM (inactive); in the experiment on CCRF-CEM, 0.259 µM (active); in the experiment on COLO 205 it was 1.86 µM (inactive); with DU-145, 7.11 µM (inactive). Further, the GI50 in the experiment on HL-60 was 0.308 µM (active); with MDA-MB-231 it was 5.22 µM (inactive); with NCI-H23, 4.95 µM (inactive); with NCI-H460 it was 4.53 µM (inactive); with NCI-H522, 0.44 µM (active); in the experiment on OVCAR-4, 6.97 µM (inactive). For the same molecule, the GI50 with RPMI-8226 was 1.39 µM (inactive); with SK-MEL-5, 2.61 µM (inactive); with SNB-75, 0.971 µM (active); in the experiment on T47D, 3.5 µM (inactive); in the experiment on UACC-257 it was 4.61 µM (inactive).

As for `COC(=O)C(CCCCNC(=O)CNC(=O)OCc1ccccc1)NC(=O)C(CCCCNC(=O)CNC(=O)OCc1ccccc1)NC(=O)OCc1ccccc1` (configuration not stated), the GI50 in the experiment on 786-0 is 25 µM (inactive); in the experiment with A549 it was > 100 µM (inactive); with ACHN it was > 100 µM (inactive); in the experiment on CCRF-CEM, 42.8 µM (inactive); with DU-145 it was 98.4 µM (inactive); in the experiment with HL-60, 83.2 µM (inactive). For the same molecule, the GI50 in the experiment with MDA-MB-231 was > 100 µM (inactive); in the experiment on Malme-3M it was 46.2 µM (inactive); with NCI-H23, > 100 µM (inactive); in the experiment with NCI-H460 it was > 100 µM (inactive); in the experiment with OVCAR-4, 29.2 µM (inactive); in the experiment with RPMI-8226, 20.4 µM (inactive). The GI50 in the experiment with SK-MEL-5 was 69.5 µM (inactive); with SNB-75, 62.7 µM (inactive); with T47D, 20.3 µM (inactive); in the experiment with UACC-257 it was > 100 µM (inactive).

`CN1C(=O)C2(C)SC1(c1ccccc1)C1C(=O)N(c3ccccc3)C(=O)C12` (configuration not stated): the GI50 in the experiment on 786-0 was > 100 µM (inactive); in the experiment with A549, 49.8 µM (inactive); in the experiment on ACHN it was 91.8 µM (inactive); with COLO 205, 67.9 µM (inactive); in the experiment on DU-145 it was > 100 µM (inactive); in the experiment with HL-60, 47.1 µM (inactive). Moreover, the GI50 was > 100 µM (inactive) in the experiment on MDA-MB-231; > 100 µM (inactive) in the experiment with Malme-3M; > 100 µM (inactive) in the experiment with NCI-H23; 96.4 µM (inactive) in the experiment on NCI-H522; 41.3 µM (inactive) in the experiment on OVCAR-4; 49.8 µM (inactive) in the experiment with RPMI-8226. For the same molecule, the results for the GI50 with SK-MEL-5, in the experiment on T47D and in the experiment with UACC-257 were 97.7 µM (inactive), 52.2 µM (inactive) and 26.4 µM (inactive), respectively.

For the molecule `C/C(=N/O)c1cccc(Nc2nc3ccccc3c3[nH]c4ccccc4c23)c1`, the GI50 was 2.3 µM (inactive) with 786-0; 2.22 µM (inactive) with A549; 1.59 µM (inactive) in the experiment on ACHN; 2.39 µM (inactive) with CCRF-CEM; 2.24 µM (inactive) with COLO 205; 1.74 µM (inactive) in the experiment with DU-145. Besides, the GI50 was 3.08 µM (inactive) in the experiment on HL-60; 2.95 µM (inactive) in the experiment on MDA-MB-231; 3.92 µM (inactive) in the experiment on Malme-3M; 3.08 µM (inactive) in the experiment with NCI-H23; 1.64 µM (inactive) with NCI-H460; 1.5 µM (inactive) with NCI-H522. The GI50 with OVCAR-4 is 2.33 µM (inactive); in the experiment on RPMI-8226 it was 2.26 µM (inactive); in the experiment on SK-MEL-5, 1.63 µM (inactive); with T47D it was 1.52 µM (inactive); in the experiment on UACC-257, 6.08 µM (inactive).

Regarding `N=C(N)N/N=C/c1c(-c2ccc(Cl)c([N+](=O)[O-])c2)nc2sc(Cl)cn12`, the GI50 in the experiment on 786-0 is 3.15 µM (inactive); in the experiment on A549, 2.47 µM (inactive); with ACHN, 1.98 µM (inactive); in the experiment on CCRF-CEM, 0.565 µM (active); in the experiment with COLO 205, 1.64 µM (inactive); with DU-145, 1.95 µM (inactive). The GI50 was 3.45 µM (inactive) in the experiment with HL-60; 1.97 µM (inactive) in the experiment on MDA-MB-231; 2.84 µM (inactive) in the experiment with Malme-3M; 3.68 µM (inactive) in the experiment on NCI-H23; 2.7 µM (inactive) in the experiment on NCI-H460; 1.51 µM (inactive) in the experiment with NCI-H522. For the same molecule, the GI50 with OVCAR-4 is 2.04 µM (inactive); in the experiment on RPMI-8226, 2.99 µM (inactive); in the experiment on SK-MEL-5, 4.07 µM (inactive); with T47D it was 1.23 µM (inactive); in the experiment on UACC-257, 1.91 µM (inactive).

Turning to `COc1cc(/C=C2\C[C@H]3[C@@H]4CCc5cc(O)ccc5[C@H]4CC[C@]3(C)C2=O)cc(OC)c1OC`, the GI50 in the experiment on 786-0 is 15.6 µM (inactive); with A549, 15.6 µM (inactive); in the experiment with ACHN, 15.5 µM (inactive); with CCRF-CEM it was 12.9 µM (inactive); in the experiment on COLO 205, 16.7 µM (inactive); in the experiment on DU-145 it was 3.69 µM (inactive). Also, the GI50 with MDA-MB-231 is 14.3 µM (inactive); in the experiment with Malme-3M, 2.53 µM (inactive); in the experiment on NCI-H23, 14.4 µM (inactive); with NCI-H460 it was 45.2 µM (inactive); in the experiment with NCI-H522 it was 1.83 µM (inactive); with OVCAR-4, 15.8 µM (inactive). Also, the GI50 in the experiment with RPMI-8226 is 14.4 µM (inactive); in the experiment on SK-MEL-5 it was 4.31 µM (inactive); in the experiment on SNB-75, 12.2 µM (inactive); with T47D, 13.5 µM (inactive); in the experiment on UACC-257, 10.8 µM (inactive).

Take `C=C(CBr)CCCOCc1ccccc1`: the GI50 was 36.6 µM (inactive) with 786-0; 38.4 µM (inactive) with A549; 14.1 µM (inactive) in the experiment with ACHN; 26.1 µM (inactive) in the experiment with CCRF-CEM; 27.6 µM (inactive) in the experiment on COLO 205; 39.1 µM (inactive) with DU-145. Further, the GI50 with HL-60 is 23.5 µM (inactive); in the experiment on MDA-MB-231 it was > 10 µM (inactive); with Malme-3M, 20.7 µM (inactive); in the experiment with NCI-H23, 13.9 µM (inactive); in the experiment on NCI-H460, 18.1 µM (inactive); in the experiment with NCI-H522 it was 22.3 µM (inactive). In addition, the GI50 is 17.6 µM (inactive) with OVCAR-4; 29.7 µM (inactive) with RPMI-8226; 20.5 µM (inactive) in the experiment on SK-MEL-5; 37.8 µM (inactive) in the experiment with T47D; 33.9 µM (inactive) with UACC-257.

As to `O=C1CC(C(COCc2ccccc2)OCc2ccccc2)CC(=O)N1` (configuration not stated), the GI50 with 786-0, in the experiment on A549, with ACHN, in the experiment on CCRF-CEM, with DU-145 and in the experiment on HL-60 was > 100 µM (inactive) in each case. Also, the GI50 with MDA-MB-231, with Malme-3M, in the experiment with NCI-H23, in the experiment on NCI-H522, with RPMI-8226 and in the experiment with SK-MEL-5 was > 100 µM (inactive) each time. For the same molecule, the results for the GI50 with T47D and in the experiment with UACC-257 were 86.3 µM (inactive) and > 100 µM (inactive), respectively.

With `CN(CCCN=C=S)CCCN1c2ccccc2CCc2ccccc21`, the GI50 is 1.64 µM (inactive) in the experiment with 786-0; 1.71 µM (inactive) in the experiment with A549; 1.75 µM (inactive) in the experiment on ACHN; 1.85 µM (inactive) with CCRF-CEM; 1.66 µM (inactive) with COLO 205; 1.83 µM (inactive) in the experiment with DU-145. In addition, the GI50 was 1.94 µM (inactive) in the experiment with HL-60; 1.8 µM (inactive) in the experiment on MDA-MB-231; 1.99 µM (inactive) in the experiment on Malme-3M; 1.64 µM (inactive) in the experiment on NCI-H23; 1.82 µM (inactive) in the experiment with NCI-H460; 1.95 µM (inactive) in the experiment on NCI-H522. Besides, the GI50 with OVCAR-4 is 1.85 µM (inactive); in the experiment on RPMI-8226 it was 1.87 µM (inactive); with SK-MEL-5 it was 1.78 µM (inactive); in the experiment with T47D, 2.07 µM (inactive); with UACC-257, 2.03 µM (inactive).

Take `Cc1ccc(NC(=O)c2cc3ccccc3c(/N=N/c3cc(S(=O)(=O)O)ccc3O)c2O)c(C)c1`: the GI50 in the experiment on 786-0 is 16.2 µM (inactive); in the experiment with A549 it was 22.3 µM (inactive); in the experiment with ACHN, 5.97 µM (inactive); with CCRF-CEM it was 3.3 µM (inactive); in the experiment on COLO 205, 36.8 µM (inactive); in the experiment with DU-145, 19.2 µM (inactive). Moreover, the GI50 in the experiment with MDA-MB-231 was 26.1 µM (inactive); in the experiment with Malme-3M, 16.4 µM (inactive); in the experiment on NCI-H23 it was 16.6 µM (inactive); with NCI-H522, 25.4 µM (inactive); in the experiment on OVCAR-4, 12.7 µM (inactive); in the experiment on RPMI-8226, 15 µM (inactive). Moreover, the GI50 is 23.7 µM (inactive) with SK-MEL-5, 23.3 µM (inactive) with SNB-75, 24.7 µM (inactive) in the experiment with T47D and 23.8 µM (inactive) with UACC-257.
